Measured values published in patent US10307412B2, “Quinoline derivative against non-small cell lung cancer” (CHIA TAI TIANQING PHARMACEUTICAL GROUP CO., LTD., priority 2014, dated 2019).
Where a name gives a salt, the structure may show the parent alone.

Experiments:
Format in all cases: in vivo, human
[1] = system: right lower lung adenocarcinoma (T4N2M1b, stage IV); experiment: Case report, stage IV lung adenocarcinoma (Example 5); conditions: for sum of the longest diameter of the two measurable lesions: baseline 45.7 mm
Description: 3, 2013, the capsule of dihydrochloride of compound I was taken orally at 12 mg once daily with repeated treatment cycles (treatment given for consecutive two weeks followed by one week of rest is one treatment cycle). Treatment toxicities were assessed at 4-week follow-up, and the number of blood cells and blood chemistry were analyzed every two or three weeks, treatment response was assessed based on CT scan as well.

[2] = system: non-small cell lung cancer squamous cell carcinoma; experiment: Case report, non-small cell lung cancer squamous cell carcinoma (Example 8)
Description: EML4-ALK fusion gene had no mutation, EGFR gene had no mutation by gene detection.
From Mar. 26, 2013 to Jun. 5, 2013, the patient was treated with cisplatin and gemcitabine chemotherapy for 4 cycles, and the best efficacy was SD. After the end of the chemotherapy, they were treated with the local radiotherapy of the lung for 1 cycle, during which the adverse reactions was light. From Sep. 9, 2013 to Oct. 6, 2013, the patient was treated with cisplatin and gemcitabine chemotherapy for 2 cycles. December 2013, disease was found progression by review of CT. From Mar. 24, 2014, the patient was treated with docetaxel chemotherapy for 1 cycle. […] On Dec. […] Double lungs had multiple pulmonary bullae, which changed little than before; 3. Double lungs had inflammation, the scope of which was smaller than before; 4. Left clavicle, mediastinal and right hilar had multiple lymph nodes, which were slightly larger than before. From Jan. 7, 2015 to Jan. […] On Mar. […] On Mar. 6, 2015, the patient was treated with oral Tiggio treatment. […] On Jun.
From Jun. 4, 2015, the patient received dihydrochloride of compound I capsule treatment that one cycle plan was 12 mg dose once, q.d., and continuous medication for 2 weeks, and then suspended medication for 1 week. On Jun.

[3] = system: patients with lung adenocarcinoma; experiment: Randomized, double-blind, placebo-controlled trial in lung adenocarcinoma patients (Example 4)
Text: (§1) In this paper, progression-free survival P25 refers to the time that 75% of the patients who participated in the disease had no progress in disease; Progressive survival P50 refers to the time that 50% of the patients who participated in the disease had no progress in disease; Progression-free survival P75 refers to the time that 25% of the patients who participated in the disease had no progress in disease; the progression-free survival was the mean value of the progression-free survival of the patient who participated in the results of statistics.
Randomized, double-blind, placebo-controlled trials were performed in patients with measurable lesions which were pathologically diagnosedas lung adenocarcinoma, who had received second-line or higher-line therapy, or those who were intolerable to the aforementioned treatment, and who had been treated with other cytotoxic drugs, radiotherapy or surgery for more than four weeks. In this study, efficacy of the capsules of dihydrochloride of compound I was initially evaluated against placebo in the treatment of patients with lung adenocarcinoma. The primary outcome of the evaluation was progression-free survival (PFS). 104 patients with lung adenocarcinoma enrolled in this study, whose age was between 18-70. Among them, 50 patients were randomized into placebo group and 54 patients randomized into dihydrochloride of compound I group.
(§2) The above-mentioned eligible lung adenocarcinoma patients were treated with dihydrochloride of compound I/placebo for clinical trials. They were administered 12 mg/0 mg of compound I/placebo individually once daily for consecutive two weeks followed by one-week rest from administration, namely the period of a cycle regimen was three weeks (21 days), those who were ineligible for continuous therapy or whose disease were progressive disease (PD) according to the reassessment were excluded from the medication.
(§3) Results: A total of 104 patients with lung adenocarcinoma were enrolled in the study, including 50 patients randomized into placebo group and 54 patients randomized into dihydrochloride of compound I group. 37 patients in placebo group and 30 patients in dihydrochloride of compound I group were involved in data statistics, the remaining patients who dropped out or excluded from the study or those were still in follow-up were not included in the statistics.

[4] = system: non-small cell lung cancer; experiment: Case report, non-small cell lung cancer, EGFR gene no mutation (Example 7)
Text: From Jun. […] From Oct. […] On Jan. […] From Jan. […] On Jul.

[5] = system: left upper lobe lung adenocarcinoma (T4N3M1a, stage IV); experiment: Case report, stage IV lung adenocarcinoma (Example 6); conditions: for sum of the diameter of two measurable target lesions: baseline 58 mm
Description: A retired person, smoking for 30 years (20 cigarettes/day), underwent thyroid adenoma resection 10 years ago. […] From Aug. 1, 2013 to Sep. […] From Dec. 26, 2013 to Jan. […] On Jan. […] On Feb.
From Feb. 28, 2014, the capsule of dihydrochloride of compound I was taken orally at 12 mg once daily with repeated treatment cycles (treatment given for consecutive two weeks followed by one week of rest is one treatment cycle).

[6] = system: patients with non-small cell lung cancer; experiment: Randomized, double-blind, placebo-controlled trial in non-small cell lung cancer patients (Example 3); conditions: for progression-free survival (PFS, month) Mean / progression-free survival (PFS, month) P25 / progression-free survival (PFS, month) P50 / progression-free survival (PFS, month) P75: 12 mg once daily, two weeks on, one week rest
Text: as §1
Randomized, double-blind, placebo-controlled trials were performed in patients with measurable lesions which were pathologically diagnosedas non-small cell lung cancer, who had received second-line or higher-line therapy, or those who were intolerable to aforementioned treatment, and who had been treated with other cytotoxic drugs, radiotherapy or surgery for more than four weeks. In this study, efficacy of the capsules of dihydrochloride of compound I was initially evaluated against placebo in the treatment of patients with non-small cell lung cancer. The primary outcome of the evaluation was progression-free survival (PFS). 117 patients with non-small cell lung cancer enrolled in this study, whose age was between 18-70. Among them, 57 patients were randomized into placebo group and 60 patients randomized into dihydrochloride of compound I group.
as §2, with “above-mentioned eligible non-small cell lung cancer” for “above-mentioned eligible lung adenocarcinoma”, “cell lung cancer patients were” for “eligible lung adenocarcinoma patients were”
as §3, with “117” for “104”, “with non-small cell” for “with”, “cancer” for “adenocarcinoma”, “57” for “50”, “60” for “54”, “43” for “37”

[7] = after ten treatment cycles (210 days)
[8] = lung adenocarcinoma, 12 mg once daily, two weeks on, one week rest
[9] = after three-week administration

## COc1cc2c(Oc3ccc4[nH]c(C)cc4c3F)ccnc2cc1OCC1(N)CC1 [dihydrochloride of compound I, 1-[[[4-(4-fluoro-2-methyl-1H-indol-5-yl)oxy-6-methoxyquinolin-7-yl]oxy]methyl]cyclopropylamine dihydrochloride]
[1]; 12 mg once daily orally
  tolerance: well tolerated
[1]; [7]
  reduction of sum of the longest diameter: 43.1%
  sum of the longest diameter of the two measurable lesions: 26 mm
[1]; after treatment for 6 weeks
  reduction of sum of the longest diameter: 31.22%
[1]; after treatment for 6 weeks, 12 mg once daily orally
  sum of the longest diameter of the two measurable lesions: 31.43 mm
[1]; during treatment
  blood routine examinations including the number of blood cells: not significantly altered
[2]; Jul. 15, 2015
  target lesion sum: 63 mm
[2]; Oct. 16, 2015
  target lesion sum: 56 mm
[2]; Sep. 8, 2015
  target lesion sum: 57 mm
[2]; after 1 cycle (Jun. 25, 2015)
  reduction of total target lesions versus baseline: 10 mm
  total target lesions: 66 mm
[2]; until application date
  tolerability of adverse reactions: could tolerate adverse reactions
[3]; [8]
  progression-free survival (PFS, month) Mean: 4.77 month
  progression-free survival (PFS, month) P25: 2.77 month
  progression-free survival (PFS, month) P50: 4.33 month
  progression-free survival (PFS, month) P75: 6.87 month
[3]; patients with lung adenocarcinoma
  effect on progression-free survival versus placebo: significantly prolong progression-free survival
[4]; Aug. 20, 2015
  left temporal lobe nodules, head enhancement CT: slightly smaller than baseline
[4]; until application date
  tolerability of adverse reactions: could tolerate adverse reactions
[5]; 12 mg once daily orally
  tolerance: generally well tolerated
[5]; after 15-week administration
  lesion in anterior segment of left upper lobe lung, diameter: 10 mm
  lesion in mediastinal lymph node, diameter: 15 mm
  reduction of sum of target lesions: 56.9%
  sum of the diameter of two measurable target lesions: 25 mm
[5]; after nine-week administration
  lesion in anterior segment of left upper lobe lung, diameter: 10 mm
  lesion in mediastinal lymph node, diameter: 16 mm
  reduction of sum of target lesions: 55.2%
  sum of the diameter of two measurable target lesions: 26 mm
[5]; [9]
  reduction of sum of target lesions: 37.9%
  sum of the diameter of two measurable target lesions: 36 mm
[5]; after three-week administration, baseline 21 mm
  lesion in mediastinal lymph node, diameter: 18 mm
[5]; after three-week administration, baseline 37 mm
  lesion in anterior segment of left upper lobe lung, diameter: 18 mm
[5]; during treatment
  blood changes: not significant
  heart toxicity: no heart toxicity related to the drug
  progression of non-target lesions and new lesions: not observed
[5]; given for 279 days, 14th treatment cycle
  response and clinical performance: sustained response against tumor and good clinical performance
[5]; six weeks administration
  lesion in anterior segment of left upper lobe lung, diameter: 14 mm
  lesion in mediastinal lymph node, diameter: 15 mm
  reduction of sum of target lesions: 50%
  sum of the diameter of two measurable target lesions: 29 mm
[5]; twelve weeks administration
  lesion in anterior segment of left upper lobe lung, diameter: 10 mm
  lesion in mediastinal lymph node, diameter: 16 mm
  reduction of sum of target lesions: 55.2%
  sum of the diameter of two measurable target lesions: 26 mm
[6]; age > 60
  progression-free survival (PFS, month) Mean: 5.84 month
  progression-free survival (PFS, month) P25: 2.83 month
  progression-free survival (PFS, month) P50: 6.40 month
  progression-free survival (PFS, month) P75: 8.30 month
[6]; age ≤ 60
  progression-free survival (PFS, month) Mean: 4.48 month
  progression-free survival (PFS, month) P25: 2.77 month
  progression-free survival (PFS, month) P50: 4.30 month
  progression-free survival (PFS, month) P75: 6.17 month
[6]; patients with non-small cell lung cancer
  effect on progression-free survival versus placebo: significantly prolong progression-free survival

## CC(=O)O[C@@]12CO[C@@H]1C[C@H](O)[C@@]1(C)C(=O)[C@H](O)C3=C(C)[C@@H](OC(=O)[C@H](O)[C@@H](NC(=O)OC(C)(C)C)c4ccccc4)C[C@@](O)([C@@H](OC(=O)c4ccccc4)[C@H]21)C3(C)C [docetaxel, reference compound]
[2]; in vivo
  adverse reactions after prior chemotherapy (medical history): bone marrow suppression, oral infection, pneumonia appeared

## gemcitabine/cisplatin [reference compound]
[5]; one treatment cycle each
  outcome of prior therapy (medical history): unsatisfactory
